Consider three compounds from patent US20230227474A1, “COMPOSITIONS AND METHODS FOR CORRECTION OF ABERRANT SPLICING” (SKYHAWK THERAPEUTICS, INC., priority 2019, published 2023).

The subject of one experiment is SMN protein. In words: SMN Protein Assay (MSD). Format: cell-based, human. The conditions noted are these: SMA patient fibroblasts (GM03813), 48 hours, read-out: SMN2 Potency- Protein: Protein FL EC50 (average). Here is the method: Compounds are tested on spinal muscular atrophy (SMA) patient fibroblasts (GM03813, Coriell) at doses ranging from 2.5 μM to 0.6 nM. 7000 cells/well are seeded in 96-well plates. Compounds are incubated for 48 hours and the cells are lysed with 100 μL of lysis buffer. 20 μL of lysate is used for SMN protein measurement by Mesoscale Discovery (MSD) assay developed by PharmOptima (Michigan). A standard curve prepared with SMN protein ranging from […] is used in each MSD plate to calculate the absolute SMN protein amount in each sample.

A further experiment relates to mHTT protein. In words: mHTT Protein Assay (2B7-MW1, MSD). The conditions noted are these: GM04724 (CAG 70/20) Huntington's disease patient lymphoblast cells, 48 hours, read-out: HTT Potency - Protein: EC50 mHTT (average). In kind it is cell-based, human. Here is the method: Compounds are tested on GM04724 (CAG 70/20) Huntington's disease patient lymphoblast cells at doses ranging from 10 μM to 0.6 nM. 4,500 cells/well are seeded in 384 well plates. One plate replica is carried out for parallel viability testing by CellTiter Glo (CTG). Compounds are incubated for 48 hours. mHTT protein levels are assessed by the 2B7-MW1 assay via Mesoscale Discovery (MSD) as previously reported (Macdonald et al., 2014). The antibody pair is comprised of previously characterized monoclonals (2B7 and MW1) interrogating two regions for HTT conformation and biological properties: the N17 domain and the polyQ domain (Baldo et al., 2012; Ko et., 2001). 2B7-MW1 is dependent on subject/animal specific levels of HTT at the time of treatment. 2B7-MW1 is dependent on polyQ expansion (e.g., the higher the expansion the higher the signal) and on mHTT size (e.g., a similar polyQ will give higher signal with smaller HTT size). The viability readout is carried out by CTG according to the manufacturer's instructions. The results are show in Table B-5.

A further experiment deals with SMN2. In words: Quantitative Splicing Assay (SMN). Format: cell-based. The conditions noted are these: Homo sapiens, Fibroblast, SMA patient fibroblasts (GM03813), 24 h. Here is the method: Spinal muscular atrophy (SMA) patient fibroblasts (GM03813, Coriell) are plated in 96-well plates at 50,000 cells/well. Immediately after plating, cells are dosed with compounds for 24 h at concentrations ranging from 2.5 μM to 0.6 nM (0.1% DMSO). Treated cells are lysed and cDNA synthesized using the Fast Advanced Cells-to-Ct kit (Thermofisher A35378) according to the manufacturer's instructions. 2 μL of each cDNA are used in qPCR reactions. The qPCR reactions are prepared in 384-well plates in 10 μL volume, using TaqMan™ Fast Advanced Master Mix (ThermoFisher; 4444965) with primers and probes shown in the table below. Reactions are run in a Quant Studio 6 qPCR instrument with default settings.

For experiment [1], the system named is Huntingtin (HTT) transcripts. In words: Quantitative Splicing Assay (HTT). In kind it is cell-based. The conditions noted are these: Homo sapiens, GM04724 (CAG 70/20) Huntington's disease patient lymphoblasts, 24 h. The procedure: GM04724 (CAG 70/20) Huntington's disease patient lymphoblasts (Coriell) are plated in 96-well v-bottom plates at 50,000 cells/well. Immediately after plating, cells are dosed with compound for 24 h at concentrations ranging from 2.5 uM to 0.15 nM (0.1% DMSO). Treated cells are lysed and cDNA synthesized using the Fast Advanced Cells-to-Ct kit (Thermofisher A35378) according to the manufacturer's instructions. 2 uL of each cDNA are used in qPCR reactions to confirm the compound-induced inclusion of a cryptic exon within intron 49 of the Huntingtin (HTT) transcripts. The qPCR reactions are prepared in 384-well plates in 10 uL volume, using TaqMan™ Fast Advanced Master Mix [ThermoFisher; 4444965] with primers and probes shown in the table below. Reactions are run in a Quant Studio 6 qPCR instrument with default settings.

SMILES strings stand for the structures. Like-named read-outs stand apart in the source and are kept apart here.

Turning to `Oc1cc(-c2cn[nH]c2)ccc1-c1cc2c(nn1)N([C@@H]1C[C@H]3CC[C@@H](C1)N3)CCO2` [Compound 1, 2-(8-((1R,3s,5S)-8-azabicyclo[3.2.1]octan-3-yl)-7,8-dihydro-6H-pyridazino[4,3-b][1,4]oxazin-3-yl)-5-(1H-pyrazol-4-yl)phenol], the EC50 with SMN protein and in the experiment with mHTT protein was 501 to 10000 nM in each case.
`Cn1cc(-c2ccc(-c3cc4c(nn3)N([C@@H]3C[C@H]5CC[C@@H](C3)N5)CCC4)c(O)c2)cn1` [Compound 2, 2-(8-((1R,3s,5S)-8-azabicyclo[3.2.1]octan-3-yl)-5,6,7,8-tetrahydropyrido[2,3-c]pyridazin-3-yl)-5-(1-methyl-1H-pyrazol-4-yl)phenol]: the EC50 with SMN protein was 0.01 to 15 nM; in the experiment on SMN2 (qPCR SMN FL, read-out: SMN2 Potency- Splicing: Splicing FL EC50 (average)), 16 to 50 nM; with mHTT protein, 0.01 to 15 nM; in experiment [1] (qPCR HTTcryp49b (cryptic exon within intron 49), read-out: HTT Potency - Splicing: E49b EC50 (average)) it was 0.01 to 15 nM; in experiment [1] (qPCR HTTex49_50, read-out: HTT Potency - Splicing: E49-50 EC50 (average)), 0.01 to 15 nM. In addition, the IC50 in the experiment on SMN2 (qPCR SMN Δ7, read-out: SMN2 Potency- Splicing: Splicing D7 IC50 (average)) fell in the range of 0.01 to 15 nM.
Take `Oc1cc(-n2ccnc2)ccc1-c1cc2c(nn1)N([C@@H]1C[C@H]3CC[C@@H](C1)N3)CCO2` [Compound 3, 2-(8-((1R,3s,5S)-8-azabicyclo[3.2.1]octan-3-yl)-7,8-dihydro-6H-pyridazino[4,3-b][1,4]oxazin-3-yl)-5-(1H-imidazol-1-yl)phenol]: the EC50 with SMN protein and in the experiment with mHTT protein was 501 to 10000 nM each time.

By EC50 is commonly meant the concentration needed to bring the measured effect to its halfway point. One may read the IC50 as the concentration at which inhibition is half-maximal.
